We go through 22 compounds from PubChem BioAssay AID248 (DTP/NCI, 2004).

The experiment concerns L1210 leukemia ip in BDF1 mice, survival T/C. The experiment in a line: NCI In Vivo Anticancer Drug Screen. Data for tumor model L1210 Leukemia (intraperitoneal) in B6D2F1 (BDF1) mice. Particulars: endpoint: mean survival time, higher = longer survival. The essentials: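 Tumor cells were implanted, animals were treated, and survival was followed. The result divides the treated measurement by the vehicle-control measurement.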

Setting [1] is: dose: 100.0 mg/kg/injection, schedule: Q01DX001 (ip), vehicle: Klucel (hydroxypropylcellulose) (HPC).
Where [2] appears, read: dose: 100.0 mg/kg/injection, schedule: Q01DX009 (ip), vehicle: Klucel (hydroxypropylcellulose) (HPC).
The mark [3] stands for this setting: dose: 100.0 mg/kg/injection, schedule: Q04DX002 (ip), vehicle: Klucel (hydroxypropylcellulose) (HPC).
[4] abbreviates: dose: 200.0 mg/kg/injection, schedule: Q01DX001 (ip), vehicle: Klucel (hydroxypropylcellulose) (HPC).
Where [5] appears, read: dose: 200.0 mg/kg/injection, schedule: Q01DX009 (ip), vehicle: Klucel (hydroxypropylcellulose) (HPC).
[6] abbreviates: dose: 200.0 mg/kg/injection, schedule: Q04DX002 (ip), vehicle: Klucel (hydroxypropylcellulose) (HPC).
The mark [7] stands for this setting: dose: 400.0 mg/kg/injection, schedule: Q01DX001 (ip), vehicle: Klucel (hydroxypropylcellulose) (HPC).
Setting [8] is: dose: 400.0 mg/kg/injection, schedule: Q01DX009 (ip), vehicle: Klucel (hydroxypropylcellulose) (HPC).
Where [9] appears, read: dose: 400.0 mg/kg/injection, schedule: Q04DX002 (ip), vehicle: Klucel (hydroxypropylcellulose) (HPC).
The mark [10] stands for this setting: dose: 100.0 mg/kg/injection, schedule: Q04DX003 (ip), vehicle: saline with Tween-80.
Where [11] appears, read: dose: 200.0 mg/kg/injection, schedule: Q04DX003 (ip), vehicle: saline with Tween-80.
Setting [12] is: dose: 400.0 mg/kg/injection, schedule: Q04DX003 (ip), vehicle: saline with Tween-80.
Where [13] appears, read: dose: 100.0 mg/kg/injection, schedule: Q01DX001 (ip), vehicle: saline.
The mark [14] stands for this setting: dose: 400.0 mg/kg/injection, schedule: Q01DX001 (ip), vehicle: saline.
The mark [15] stands for this setting: dose: 200.0 mg/kg/injection, schedule: Q01DX001 (ip), vehicle: saline.

Several values for one entry are separate records, joined by “and”; a condition that tells them apart may be missing. Equal values may be shown once. Inconclusive results and toxic doses are left out.

For the compound `Cc1ccc(C(C)C)c(OC(=O)Nc2ccc(Cl)cc2)c1`, the T/C reads like this: under setting [1], 95 % of control; under setting [2], 96 % of control and 103 % of control; under setting [3], 98 % of control and 102 % of control; (dose: 100.0 mg/kg/injection, schedule: Q04DX003 (ip), vehicle: Klucel (hydroxypropylcellulose) (HPC)) 100 % of control and 120 % of control; under setting [4], 88 % of control; under setting [5], 98 % of control and 100 % of control. Besides, the T/C is 102 % of control under setting [6]; 104 % of control and 124 % of control (dose: 200.0 mg/kg/injection, schedule: Q04DX003 (ip), vehicle: Klucel (hydroxypropylcellulose) (HPC)); 88 % of control under setting [7]; 96 % of control and 91 % of control under setting [8]; 94 % of control and 98 % of control under setting [9]; 96 % of control (dose: 400.0 mg/kg/injection, schedule: Q04DX003 (ip), vehicle: Klucel (hydroxypropylcellulose) (HPC)).

In the case of `OCc1ccccc1CN1CCCC1`, the T/C under setting [1] is 94 % of control, the T/C under setting [4] is 96 % of control and the T/C under setting [7] was 97 % of control.

Turning to `COC(=O)C(Cc1c[nH]c2ccccc12)[N+](C)(C)C` (stereo not given), the T/C (dose: 35.0 mg/kg/injection, schedule: Q01DX Z (ip), vehicle: saline) is 95 % of control and the T/C (dose: 50.0 mg/kg/injection, schedule: Q01DX Z (ip), vehicle: saline) was 97 % of control.

Turning to `O=C1c2ccccc2C(=O)N1CCl`, the T/C is 93 % of control under setting [1], 104 % of control under setting [4] and 114 % of control under setting [7].

As for `CCC(C)N1C(=O)CCC1=O` (stereo not given), the T/C is, setting by setting: (dose: 150.0 mg/kg/injection, schedule: Q01DX001 (ip), vehicle: saline) 101 % of control; (dose: 300.0 mg/kg/injection, schedule: Q01DX001 (ip), vehicle: saline) 101 % of control; (dose: 600.0 mg/kg/injection, schedule: Q01DX001 (ip), vehicle: saline) 101 % of control.

Consider `Cc1noc2nc(Cl)cnc12`, for which the T/C is 109 % of control (dose: 100.0 mg/kg/injection, schedule: Q01DX009 (ip), vehicle: saline with Tween-80); 94 % of control under setting [10]; 110 % of control (dose: 200.0 mg/kg/injection, schedule: Q01DX009 (ip), vehicle: saline with Tween-80); 102 % of control under setting [11]; 104 % of control (dose: 400.0 mg/kg/injection, schedule: Q01DX009 (ip), vehicle: saline with Tween-80); 94 % of control under setting [12].

For `CNP(Br)(c1ccccc1)(c1ccccc1)c1ccccc1`, where the note is “dose: 10.0 mg/kg/injection, schedule: Q01DX001 (ip), vehicle: saline”, the T/C was 101 % of control.

As for `Oc1ccccc1/C=N/Nc1c2ccccc2nc2ccccc12`, the T/C under setting [13] is 103 % of control and the T/C under setting [14] was 93 % of control.

`Nc1nc(N)c(-c2ccc(Cl)c(Cl)c2)c(COc2cccc(CNC(=O)c3cccc(S(=O)(=O)F)c3)c2)n1`: the T/C is, setting by setting: (dose: 25.0 mg/kg/injection, schedule: Q01DX009 (ip), vehicle: saline) 110 % of control; (dose: 50.0 mg/kg/injection, schedule: Q01DX009 (ip), vehicle: saline) 102 % of control; (dose: 100.0 mg/kg/injection, schedule: Q01DX009 (ip), vehicle: saline) 98 % of control; (dose: 200.0 mg/kg/injection, schedule: Q01DX009 (ip), vehicle: saline) 102 % of control; (dose: 400.0 mg/kg/injection, schedule: Q01DX009 (ip), vehicle: saline) 105 % of control.

With `NC(=O)c1c(Br)n(C2OC(CO)C(O)C2O)c2ncnc(N)c12` (stereo not given), the T/C is, setting by setting: (dose: 50.0 mg/kg/injection, schedule: Q04DX003 (ip), vehicle: saline with Tween-80) 102 % of control; under setting [13], 121 % of control; (dose: 178.0 mg/kg/injection, schedule: Q01DX001 (ip), vehicle: saline) 111 % of control; (dose: 267.0 mg/kg/injection, schedule: Q01DX001 (ip), vehicle: saline) 109 % of control; under setting [14], 120 % of control; under setting [12], 150 % of control.

With `Cc1c(C2CCC(=O)C2)c2ccccc2n1C` (stereo not given), the T/C by setting is: (dose: 100.0 mg/kg/injection, schedule: Q01DX001 (ip), vehicle: carboxymethylcellulose (CMC)) 93 % of control; (dose: 200.0 mg/kg/injection, schedule: Q01DX001 (ip), vehicle: carboxymethylcellulose (CMC)) 89 % of control; (dose: 400.0 mg/kg/injection, schedule: Q01DX001 (ip), vehicle: carboxymethylcellulose (CMC)) 88 % of control.

With `Cc1ccc(NC(=O)C(Cl)(Cl)Cl)cc1Cl`, the T/C is 112 % of control under setting [2], 106 % of control under setting [5] and 109 % of control under setting [8].

For the compound `CNC(=S)N/N=C/c1ccc([N+](=O)[O-])s1`, the T/C was 90 % of control under setting [10], 90 % of control under setting [11] and 89 % of control under setting [12].

For `CN=C(NC)c1ccc(NC(=O)c2cccc(C(=O)Nc3ccc(C(=NC)NC)cc3)c2)cc1`, the T/C is, setting by setting: (dose: 15.0 mg/kg/injection, schedule: Q01DX Z (ip), vehicle: saline) 110 % of control; (dose: 30.0 mg/kg/injection, schedule: Q01DX Z (ip), vehicle: saline) 119 % of control; (dose: 60.0 mg/kg/injection, schedule: Q01DX Z (ip), vehicle: saline) 86 % of control.

Consider `CCSCCC#N`, for which the T/C is, setting by setting: (dose: 100.0 mg/kg/injection, schedule: Q04DX002 (ip), vehicle: saline) 103 % of control; (dose: 200.0 mg/kg/injection, schedule: Q04DX002 (ip), vehicle: saline) 109 % of control.

`CC[S][Hg][Cl]`: the T/C is 92 % of control (dose: 3.0 mg/kg/injection, schedule: Q01DX009 (ip), vehicle: saline with Tween-80); 101 % of control (dose: 6.0 mg/kg/injection, schedule: Q01DX009 (ip), vehicle: saline with Tween-80); 101 % of control (dose: 12.5 mg/kg/injection, schedule: Q04DX003 (ip), vehicle: saline with Tween-80).

As for `COc1ccc(N2C=C(c3ccccc3)CC2=O)cc1`, the T/C reads like this: under setting [3], 94 % of control; under setting [6], 94 % of control; under setting [9], 97 % of control.

Turning to `Cc1ncc(C(=O)O)c2c1OC(C)(C)OC2`, the T/C runs as follows: (dose: 50.0 mg/kg/injection, schedule: Q01DX001 (ip), vehicle: saline) 100 % of control; under setting [13], 91 % of control; under setting [15], 100 % of control; under setting [14], 94 % of control.

`CC(C)(CO)NC(=O)COc1ccc(Cl)cc1Cl`: the T/C reads like this: (dose: 100.0 mg/kg/injection, schedule: Q04DX002 (ip), vehicle: saline with Tween-80) 102 % of control; (dose: 200.0 mg/kg/injection, schedule: Q04DX002 (ip), vehicle: saline with Tween-80) 94 % of control; (dose: 400.0 mg/kg/injection, schedule: Q04DX002 (ip), vehicle: saline with Tween-80) 94 % of control.

`O=C1C=CC(=O)N1c1ccc2c(c1)oc(=O)c1ccccc12`: the T/C reads like this: (dose: 37.5 mg/kg/injection, schedule: Q01DX009 (ip), vehicle: saline with Tween-80) 92 % of control; (dose: 50.0 mg/kg/injection, schedule: Q04DX003 (ip), vehicle: saline) 96 % of control; under setting [13], 97 % of control; (dose: 100.0 mg/kg/injection, schedule: Q04DX003 (ip), vehicle: saline) 96 % of control; under setting [15], 92 % of control; (dose: 200.0 mg/kg/injection, schedule: Q04DX003 (ip), vehicle: saline) 97 % of control.

Turning to `O=C(COc1ccc(Cl)cc1C(=O)O)NCc1ccc([N+](=O)[O-])cc1`, the T/C runs as follows: (dose: 75.0 mg/kg/injection, schedule: Q01DX009 (ip), vehicle: Klucel (hydroxypropylcellulose) (HPC)) 106 % of control; (dose: 150.0 mg/kg/injection, schedule: Q01DX009 (ip), vehicle: Klucel (hydroxypropylcellulose) (HPC)) 104 % of control; (dose: 300.0 mg/kg/injection, schedule: Q01DX009 (ip), vehicle: Klucel (hydroxypropylcellulose) (HPC)) 101 % of control.

With `ClCCN(CCCl)c1ccc(CNCCCNCc2ccc(N(CCCl)CCCl)cc2Cl)c(Cl)c1`, the T/C (dose: 50.0 mg/kg/injection, schedule: Q01DX001 (ip), vehicle: carboxymethylcellulose (CMC)) was 93 % of control.
